Assays:
Assay type in all cases: in vivo
[1] = system: Cabbage Looper [Trichoplusia ni (Hubner)]; test: Cabbage looper insecticidal test; conditions: second-instar larvae, percent in solution; 3-5 days
Experimental: (§1) The compounds in Tables 1 and 2 above were tested for insecticidal activity using the following testing procedures. LC50 values, based on the results of these tests and calculated according to dosage-mortality curves, are expressed in Table 3.
Cabbage Looper [Trichoplusia ni (Hubner)]:
Test compounds were diluted in a 50-50 acetone-water solution. Cotyledons of hyzini squash (Calabacita abobrinha), approximately 1×1.5 inches, were immersed in the test solutions for 2-3 seconds and placed on a wire screen to dry. The dried leaves were placed in petri dishes containing a moistened piece of filter paper and infested with 5 second-instar cabbage looper larvae. The dishes were placed in a high humidity chamber. Mortality of the larvae was recorded 3-5 days later. Test concentrations ranged from 0.1% downward. The LC-50 value is expressed below in Table 3 under the heading "CL" in terms of percent of the test compound in solution.

[2] = system: Tobacco Budworm [Heliothis virescens (Fabricius)] eggs; test: Tobacco budworm egg test; conditions: 2-day old eggs, percent in solution
Experimental: as §1
Tobacco Budworm [Heliothis virescens (Fabricius)]:
(b). Eggs: Paper towel patches of 2-day old eggs of the tobacco budworm were dipped in acetone solutions of the test compound and placed in petri dishes containing a portion of larval rearing medium. Treated eggs were maintained at 78° F. and mortality was recorded after all control eggs had hatched and the young larvae were feeding on the media. Test concentrations ranged from 0.1% downward. The LC-50 value is expressed below in Table 3 under the heading "TBW-E" in terms of percent of the test compound in the solution.

[3] = system: Housefly [Musca domestica]; test: Housefly insecticidal test; conditions: μg per 25 female flies; mortality after 48 hours
Experimental: as §1
Housefly [Musca domestica]:
Test compounds were diluted in acetone and aliquots pipetted onto the bottom of aluminum dishes. To ensure even spreading of the chemical on the bottom of the dishes, 1 ml of acetone containing 0.01% peanut oil was also added to each dish. After all solvents had evaporated, the dishes were placed in circular cardboard cages containing 25 female houseflies, 1-2 days old. The cages were covered on the bottom with cellophane and on the top with tulle netting, and each contained a sugar-water saturated cotton plug for maintenance of the flies. Mortality was recorded after 48 hours. Test levels ranged from 100 μg/25 female houseflies downward. The LC-50 value is expressed below in Table 3 under the heading "HF", in terms of μg of the test compound per 25 female flies.

| Structure (SMILES) | LC50, CL [1] [%] | LC50, TBW, E (TBW-E) [2] [%] | LC50, HF [3] [µg] |
| --- | --- | --- | --- |
| CC(C)(C)C(=Nc1cccc(Cl)c1)OCc1cccc(Oc2ccccc2)c1 [Compound 12] | 0.008 | > 0.1 | > 100 |
| CC1CC1C(=Nc1ccc(Cl)cc1)OCc1cccc(Oc2ccccc2)c1 (stereo not shown) [Compound 15] | 0.025 | > 0.1 | > 100 |
| CC(C)C(=Nc1cc(Cl)c(Cl)cc1Cl)OCc1cccc(Oc2ccccc2)c1 [Compound 18] | 0.008 | 0.09 | > 100 |
| CC(C)C(=Nc1c(Cl)cc(Cl)cc1Cl)OCc1cccc(Oc2ccccc2)c1 [Compound 19] | < 0.1 | > 0.1 | > 100 |
| COC(C)C(=Nc1ccc(Cl)cc1)OCc1cccc(Oc2ccccc2)c1 (stereo not shown) [Compound 22] | 0.004 | 0.08 | 15 |
| Clc1cccc(N=C(OCc2cccc(Oc3ccccc3)c2)C2CC2)c1 [Compound 24] | 0.005 | 0.1 | 25 |
| CCC(C)C(=Nc1ccc(Cl)cc1)OCc1cccc(Oc2ccccc2)c1 (stereo not shown) [Compound 26] | 0.007 | > 0.1 | > 100 |
| CC(Cl)C(=Nc1ccc(Cl)c(Cl)c1)OCc1cccc(Oc2ccccc2)c1 (stereo not shown) [Compound 27] | 0.04 | > 0.1 | > 100 |
| CCC(=Nc1cccc(Cl)c1Cl)OCc1cccc(Oc2ccccc2)c1 [Compound 28] | 0.009 | > 0.1 | > 100 |
| CCC(=Nc1ccc(Cl)c(Cl)c1)OCc1cccc(Oc2ccccc2)c1 [Compound 36] | 0.024 | > 0.1 | 20 |
| CCCC(=Nc1ccc(Cl)c(Cl)c1)OCc1cccc(Oc2ccccc2)c1 [Compound 38] | 0.006 | 0.05 | 33 |
| CCC(C)C(=Nc1ccc(Cl)c(Cl)c1)OCc1cccc(Oc2ccccc2)c1 (stereo not shown) [Compound 39] | 0.0023 | > 0.1 | > 100 |
| CC(C)C(=Nc1ccc(Cl)c(Cl)c1)OCc1cccc(Oc2cccc(F)c2)c1 [Compound 40] | 0.0025 | 0.08 | 36 |
| CC(C)(C)C(=Nc1ccc(F)cc1)OCc1cccc(Oc2ccccc2)c1 [Compound 48] | 0.03 | > 0.05 | > 100 |
| CC(C)C(=Nc1cc(F)ccc1F)OCc1cccc(Oc2ccccc2)c1 [Compound 56] | 0.01 | > 0.05 | 91 |
| CC(C)C(=Nc1cc(F)c(F)cc1F)OCc1cccc(Oc2ccccc2)c1 [Compound 58] | 0.002 | 0.06 | 16 |
| CCC(=Nc1ccc(F)cc1F)OCc1cccc(Oc2ccccc2)c1 [Compound 59] | 0.02 | > 0.1 | 25 |
| COc1cc(N=C(OCc2cccc(Oc3ccccc3)c2)C(C)C)cc(C(F)(F)F)c1 [Compound 76] | 0.002 | 0.05 | 20 |
| CC(C)C(=Nc1cc(C(F)(F)F)cc(C(F)(F)F)c1)OCc1cccc(Oc2ccccc2)c1 [Compound 78] | 0.0025 | > 0.1 | > 100 |
| CC(C)C(=Nc1ccc(Br)cc1F)OCc1cccc(Oc2ccccc2)c1 [Compound 79] | 0.003 | 0.05 | 6 |
| CC(C)C(=Nc1cc(C(F)(F)F)ccc1F)OCc1cccc(Oc2ccccc2)c1 [Compound 84] | 0.006 | 0.1 | 93 |
| FC(F)(F)c1cccc(N=C(OCc2cccc(Oc3ccccc3)c2)C2CC2)c1 [Compound 86] | 0.013 | > 0.1 | 65 |
| Cc1cc(N=C(OCc2cccc(Oc3ccccc3)c2)C(C)C)ccc1F [Compound 87] | 0.004 | 0.03 | 5 |

| Structure (SMILES) | LC50, CL [1] [%] | LC50, TBW, E (TBW-E) [2] [%] | LC50, HF [3] [µg] |
| --- | --- | --- | --- |
| Cc1ccc(Cl)c(N=C(OCc2cccc(Oc3ccccc3)c2)C(C)C)c1 [Compound 93] | 0.005 | > 0.1 | 64 |
| Cc1ccc(N=C(OCc2cccc(Oc3ccccc3)c2)C(C)C)c(Cl)c1 [Compound 94] | 0.0045 | 0.075 | 44 |
| COc1cc(N=C(OCc2cccc(Oc3ccccc3)c2)C(C)C)c(OC)cc1Cl [Compound 99] | 0.016 | > 0.1 | > 100 |
| COc1ccc(OC)c(N=C(OCc2cccc(Oc3ccccc3)c2)C(C)C)c1Cl [Compound 100] | 0.05 | > 0.1 | 100 |
| CCSc1ccc(N=C(OCc2cccc(Oc3ccccc3)c2)C(C)C)cc1Cl [Compound 103] | 0.015 | > 0.1 | > 100 |
| CCOC(=O)c1ccc(N=C(OCc2cccc(Oc3ccccc3)c2)C(C)C)cc1Cl [Compound 104] | 0.004 | > 0.1 | > 100 |
| CC(C)(C)C(=Nc1ccc(Cl)c([N+](=O)[O-])c1)OCc1cccc(Oc2ccccc2)c1 [Compound 105] | 0.018 | > 0.1 | > 100 |
| CC(C)(C)C(=Nc1ccc(Br)c(Cl)c1)OCc1cccc(Oc2ccccc2)c1 [Compound 106] | 0.014 | > 0.1 | > 100 |
| Cc1ccc(N=C(OCc2cccc(Oc3ccccc3)c2)C(C)(C)C)cc1Cl [Compound 107] | 0.007 | > 0.1 | > 100 |
| Cc1cc(Cl)ccc1N=C(OCc1cccc(Oc2ccccc2)c1)C(C)(C)C [Compound 109] | 0.002 | > 0.1 | > 100 |
| COc1ccc(N=C(OCc2cccc(Oc3ccc(F)cc3)c2)C(C)C)cc1Cl [Compound 110] | 0.007 | 0.04 | 26 |
| CC(C)(Cl)C(=Nc1ccc(Cl)c2ccccc12)OCc1cccc(Oc2ccccc2)c1 [Compound 111] | 0.1 | > 0.1 | > 100 |
| CC(C)C(=Nc1cccc(Oc2ccccn2)c1)OCc1cccc(Oc2ccccc2)c1 [Compound 114] | < 0.1 |  | 92 |
| CCC(=Nc1ccc(F)c(Cl)c1)OCc1cccc(Oc2ccc(F)cc2)c1 [Compound 115] | 0.0012 | 0.075 | 10 |
| CC(Br)C(=Nc1ccc(F)c(Cl)c1)OCc1cccc(Oc2ccccc2)c1 (stereo not shown) [Compound 118] | 0.0013 | > 0.1 | 18 |
| CCCCC(=Nc1ccc(F)c(Cl)c1)OCc1cccc(Oc2ccccc2)c1 [Compound 121] | 0.1 | > 0.1 | > 100 |
| CCCC(=Nc1ccc(F)c(Cl)c1)OCc1cccc(Oc2ccccc2)c1 [Compound 123] | 0.012 | > 0.1 | > 100 |
| CC(C)C(=Nc1cccc(C#N)c1)OCc1cccc(Oc2ccccc2)c1 [Compound 126] | 0.08 | > 0.1 | > 100 |
| Cc1cc(N=C(OCc2cccc(Oc3ccccc3)c2)C(C)C)ccc1Br [Compound 127] | 0.01 | 0.04 | 58 |
| CC(C)C(=Nc1c(Br)cc(F)cc1Br)OCc1cccc(Oc2ccccc2)c1 [Compound 130] | 0.005 | > 0.1 | > 100 |
| FC(F)(F)c1ccc(Oc2ccc(COC(=Nc3ccc(Cl)cc3)C(Cl)Cl)cc2)nc1 [Compound 453] | 0.1 |  | > 100 |
| CC(C)C(=Nc1ccc(F)c(Cl)c1)OC(F)c1cccc(Oc2ccc(F)cc2)c1 (stereo not shown) [Compound 502] |  |  | 80 |
| CC(C)C(=Nc1ccc(OC(F)(F)F)cc1)OCc1cccc(Cc2ccccc2)c1 [Compound 542] | > 0.01 |  | > 100 |

— patent US5070210A, “Novel ketenimines as intermediates for insecticides” (ICI Americas Inc., priority 1990, dated 1991)
